# Experimental data: patent US11732008B2, “Preparation of functional homocysteine residues in polypeptides and peptides” (The Regents of the University of California, priority 2016, dated 2023)
# Columns and labels:
# [1] = Solubility in water
# [2] = Cloud point temperature (Tcp) by transmittance while heating; type: physicochemical; conditions: for Tcp (° C.): polymer 3.0 mg/mL in H2O, heated 1° C./min, temperature of 50% transmittance at 500 nm, —a = no Tcp detected, fully soluble 20 to 80° C., NA^b = insoluble in H2O down to 5° C.
# Experimental: (§1) FIGS. 7A and 7B show CD Spectra and heating curves of exemplary OEG-Hcy derivatives.
# The incorporation of precise side-chain structural modifications, enabled systematic study of the effects of different functionalities on the properties of the materials. […] Cloud point temperatures (Tcp) were determined at 50% transmittance by monitoring solution transmittance as a function of temperature, and were used to approximate the equilibrium LCST values. Since chain length variation and polymer concentration are well known to affect Tcp values, all samples were identical in length, being prepared from the same stock of M60 (SEQ ID NO: 1).
# [3] = Chain conformation / helicity by circular dichroism (CD) spectroscopy; type: physicochemical; conditions: 20° C.
# Experimental: For M60 (SEQ ID NO: 1), no data are presented below 204 nm due to solvent absorption that prohibits data collection. 31 found to be 85% α-helical. All CD spectra recorded at 0.5 mg/ml, 20° C. Figure discloses “C^H60” as SEQ ID NO: 2.
# as §1
# Heating or cooling rate: 1° C./min, transmittance recorded at 500 nm. […] (label: 20° C.*).
# All data were recorded in H2O at 0.5 mg/mL, 20° C. For 5b no data were recorded below 198 nm due to sulfoxide absorption.
substance,measurement,setting,value
Poly(S-(3-(2-acetoxyethoxy)-2-hydroxypropyl)-L-homocysteine) [Sample 2c],water solubility (in words),[1],water insoluble
Poly(S-(3-(2-hydroxyethoxy)-2-hydroxypropyl)-L-homocysteine) [Sample 2a],water solubility (in words),[1],fully water soluble
"Poly(S-(2-acetoxy-4,7,10,13-tetraoxatetradecyl)-L-homocysteine) [Sample 3a]",Tcp (° C.),[2],39 °C
"Poly(S-(2-(((2-methoxyethoxy)carbonyl)oxy)-4,7,10,13-tetraoxatetradecyl)-L-homocysteine) [Sample 3b]",Tcp (° C.),[2],41 °C
"Poly(L-methionine)60 [Sample M60, reference compound]",chain conformation,"[3]; CD in THF, 0.5 mg/ml",helical
same,water solubility (in words),[1],water-insoluble
"Poly(S-(2-hydroxy-4,7-dioxaoctyl)-L-homocysteine sulfone) [Sample 5b]",chain conformation,"[3]; CD in water, 0.5 mg/mL",α-helical conformation
same,α-helical (%),"[3]; CD in water, 0.5 mg/mL",86%
same,water solubility (in words),[1],good solubility
same,"Tcp / LCST in water, present or not",[2],neither polymer has a LCST
"Poly(S-(2-hydroxy-4,7-dioxaoctyl)-L-homocysteine sulfoxide) [Sample 5a]",chain conformation,"[3]; CD in water, 0.5 mg/mL",disordered conformation
same,water solubility (in words),[1],good solubility
same,"Tcp / LCST in water, present or not",[2],neither polymer has a LCST
Poly(S-(3-(2-methoxyethoxy)-2-hydroxypropyl)-DL-homocysteine) [rac-2b],water solubility (in words),[1],fully water soluble
